Results: patent US20060120972A1, “9-(N-methyl-piperidyliden-4)-thioxanthene for treatment of pulmonary hypertension” (priority 2004, published 2006)
Entries after “also recorded” stand apart in the source; their conditions may differ.

Legend:
[1] = target: T1, human Histamine H3 receptor (Homo sapiens, UniProt Q9Y5N1); test: Cloned human H3 receptor binding assay
T1 construct: expressed in transfected cells
Experimental: (§1) CHO cells were stably transfected with an expression plasmid pCineohH1, pCineohH2, pCineohH3 and pCineohH4 encoding the human Histamine H1, H2, H3 or H4 receptor, respectively. Recombinant cell lines were harvested after confluent growth, homogenized in ice-cold 50 mM Na2/potassium phosphate buffer (pH 7.4) and used for radioligand binding studies. Cell homogenates (40-50 μg of protein) were incubated for 30 min at 25° C. in 50 mM Na2/potassium phosphate buffer (pH 7.4) in 400 μl with the various concentrations of either [^3H]-mepyramine, [^3H]-thiotidine, [^3H]-R-a-Methylhistamine, and [^3H]-pyramilamine for cells expressing recombinant human H1, H2, H3 and H4 receptors, respectively. The nonspecific binding was defined in the presence of 1 μM mianserin. […] The incubations were stopped by rapid dilution with 3 ml of ice-cold 50 mM Na2/potassium phosphate buffer (pH 7.4). […] Filters were washed twice in 3 ml of buffer and radioactivity retained on the filters was measured by liquid scintillation counting.
(§2) EC80 values were calculated from corresponding dose-response experiment using 5-HT, histamine, epinephrine (alpha 1A adrenergic receptor), dopamine (D2 dopaminergic receptor), and acetylcholine (M1 muscarinic receptor) as agonists.

[2] = target: T2, human Histamine H4 receptor (Homo sapiens, UniProt Q9H3N8); test: Cloned human H4 receptor binding assay
T2 construct: expressed in transfected cells
T2 sequence (Q9H3N8 whole entry): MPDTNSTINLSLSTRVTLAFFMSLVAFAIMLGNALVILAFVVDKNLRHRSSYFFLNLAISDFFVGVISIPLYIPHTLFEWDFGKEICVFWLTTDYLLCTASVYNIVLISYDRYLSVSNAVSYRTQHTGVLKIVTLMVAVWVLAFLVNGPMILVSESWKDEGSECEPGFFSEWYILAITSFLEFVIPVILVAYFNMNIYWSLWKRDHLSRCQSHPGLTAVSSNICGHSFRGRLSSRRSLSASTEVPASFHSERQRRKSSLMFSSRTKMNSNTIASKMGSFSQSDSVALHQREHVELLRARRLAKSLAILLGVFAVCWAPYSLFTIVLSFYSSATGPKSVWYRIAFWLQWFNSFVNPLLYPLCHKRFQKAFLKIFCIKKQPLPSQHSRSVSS
Experimental: as §1, §2

[3] = target: T3, human 5-HT2B receptor (Homo sapiens, UniProt P41595); test: Cloned human 5-HT2B receptor binding assay; settings: 5-HT2B versus 5HT2C; listed as compound of the preferred embodiments
T3 construct: expressed in transfected cells; host or cells: HEK 293 (transient)
T3 sequence (P41595 whole entry): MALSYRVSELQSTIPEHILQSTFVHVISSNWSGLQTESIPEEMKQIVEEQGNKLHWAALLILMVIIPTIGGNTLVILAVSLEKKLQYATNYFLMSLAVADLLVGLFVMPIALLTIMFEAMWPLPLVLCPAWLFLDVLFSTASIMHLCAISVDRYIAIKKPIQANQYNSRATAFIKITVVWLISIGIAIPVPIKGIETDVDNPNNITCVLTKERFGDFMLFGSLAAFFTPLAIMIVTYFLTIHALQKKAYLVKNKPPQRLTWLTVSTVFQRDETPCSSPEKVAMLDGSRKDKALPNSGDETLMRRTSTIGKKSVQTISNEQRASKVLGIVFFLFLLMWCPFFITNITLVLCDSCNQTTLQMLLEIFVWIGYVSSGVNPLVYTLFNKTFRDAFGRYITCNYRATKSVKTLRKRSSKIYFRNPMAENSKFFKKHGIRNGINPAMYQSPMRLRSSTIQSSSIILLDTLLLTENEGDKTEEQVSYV

[4] = target: T4, human Histamine H1 receptor (Homo sapiens, UniProt P35367); test: Cloned human H1 receptor binding assay
T4 construct: expressed in transfected cells
T4 sequence (P35367 whole entry): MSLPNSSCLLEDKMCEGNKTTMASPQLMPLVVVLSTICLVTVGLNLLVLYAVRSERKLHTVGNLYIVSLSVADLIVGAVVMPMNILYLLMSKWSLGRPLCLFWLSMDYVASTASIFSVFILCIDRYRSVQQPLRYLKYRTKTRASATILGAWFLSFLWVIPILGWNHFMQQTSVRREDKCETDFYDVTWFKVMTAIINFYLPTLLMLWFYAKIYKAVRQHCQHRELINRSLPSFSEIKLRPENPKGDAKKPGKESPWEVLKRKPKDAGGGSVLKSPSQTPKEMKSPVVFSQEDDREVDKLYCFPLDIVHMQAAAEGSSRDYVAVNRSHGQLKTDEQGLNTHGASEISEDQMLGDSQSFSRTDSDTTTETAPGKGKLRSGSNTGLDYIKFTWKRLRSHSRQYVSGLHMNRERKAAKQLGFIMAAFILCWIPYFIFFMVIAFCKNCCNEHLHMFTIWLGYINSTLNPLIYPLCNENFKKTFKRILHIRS
Experimental: as §1, §2

[5] = system: plasma protein extravasation at the blood vessels within the Dura mater after mCPP application; test: mCPP model in guinea pigs: plasma protein extravasation (EvansBlue); assay type: in vivo; settings: for Plasma protein extravasation as EvansBlue extinction at 600 nm: 2 min before 1 μg/kg mCPP, guinea pig dura mater
Experimental: In accordance to the protocol published by Markowitz et. al; (1987) and Olesen et. al; (2000), guinea pigs were used to determine the amount of plasma protein released at the blood vessels within the Dura mater after mCPP application.
2 minutes later 1 μg/kg body weight mCPP were injected and followed by the i.v. application of EvansBlue as marker for the protein plasma extravasation. 15 minutes later animals were transcranial perfused and decapitated. A defined area of the dura mater was isolated and transferred into an eppendorf tube containing 200 μl formamid. Because EvansBlue binds to plasma protein, the amount of bound marker dye is a measure of extravasation of plasma protein. Formamid dissolves EvansBlue from the protein which can be calorimetric detected and quantified at 600 nm.

[6] = target: T5, human Histamine H2 receptor (Homo sapiens, UniProt P25021); test: Cloned human H2 receptor binding assay
T5 construct: expressed in transfected cells
T5 sequence (P25021 whole entry): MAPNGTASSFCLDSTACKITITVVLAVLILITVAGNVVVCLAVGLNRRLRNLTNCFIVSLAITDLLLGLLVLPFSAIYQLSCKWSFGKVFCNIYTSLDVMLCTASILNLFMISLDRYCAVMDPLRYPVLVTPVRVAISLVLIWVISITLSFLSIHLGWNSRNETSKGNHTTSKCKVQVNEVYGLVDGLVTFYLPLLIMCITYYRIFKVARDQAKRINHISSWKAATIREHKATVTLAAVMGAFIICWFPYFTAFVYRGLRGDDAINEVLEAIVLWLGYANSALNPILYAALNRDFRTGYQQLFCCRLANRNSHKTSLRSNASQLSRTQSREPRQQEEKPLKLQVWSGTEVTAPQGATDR
Experimental: as §1, §2

T1 sequence (Q9Y5N1 whole entry): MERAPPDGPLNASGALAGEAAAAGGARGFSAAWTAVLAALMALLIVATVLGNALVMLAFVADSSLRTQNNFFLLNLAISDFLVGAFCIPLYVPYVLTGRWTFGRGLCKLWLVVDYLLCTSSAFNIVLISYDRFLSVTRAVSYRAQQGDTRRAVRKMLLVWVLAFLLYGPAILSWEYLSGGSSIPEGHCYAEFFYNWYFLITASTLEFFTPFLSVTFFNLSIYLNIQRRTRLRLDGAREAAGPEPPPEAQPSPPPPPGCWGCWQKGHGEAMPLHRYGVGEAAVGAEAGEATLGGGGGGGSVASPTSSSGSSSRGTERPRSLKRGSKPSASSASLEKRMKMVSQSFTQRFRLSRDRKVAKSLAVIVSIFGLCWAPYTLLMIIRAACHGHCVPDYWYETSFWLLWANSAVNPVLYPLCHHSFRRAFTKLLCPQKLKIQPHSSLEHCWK

SMILES: CN1CCC(=C2c3ccccc3Sc3ccccc32)CC1 [Pimethixene, 9-(N-methyl-piperidyliden-4)-thioxanthene]
- Affinity for the human H3 receptor (in words) [1]: no affinity
- pKi values H3 [1]: low activity
- Affinity for the human H4 receptor (in words) [2]: no affinity
- pKi values H4 [2]: low activity
- Selectivity of affinity for 5-HT2B receptor versus 5HT2C receptor [3]: selective affinity; also recorded: much higher affinity
- Affinity to the human H1 receptor (in words) [4]: high affinity
- Plasma protein extravasation as EvansBlue extinction at 600 nm ([5]; dose 0.001 μg/kg i.v.): 0.269 ± 0.022
- Plasma protein extravasation as EvansBlue extinction at 600 nm ([5]; dose 0.01 μg/kg i.v.): 0.157 ± 0.040
- Plasma protein extravasation as EvansBlue extinction at 600 nm ([5]; dose 0.1 μg/kg i.v.): 0.126 ± 0.028
- Affinity for the human H2 receptor (in words) [6]: no affinity
- pKi values H2 [6]: low activity

SMILES: CN1CCC(=C2c3ccccc3CCc3sccc32)CC1 [Pizotifen]
- Plasma protein extravasation as EvansBlue extinction at 600 nm ([5]; dose 1 μg/kg i.v.): 0.404 ± 0.025
- Plasma protein extravasation as EvansBlue extinction at 600 nm ([5]; dose 10 μg/kg i.v.): 0.144 ± 0.035
- Plasma protein extravasation as EvansBlue extinction at 600 nm ([5]; dose 100 μg/kg i.v.): 0.230 ± 0.018

SMILES: Clc1cccc(N2CCNCC2)c1 [mCPP]
- EvansBlue extinction, positive control (mCPP agonist) ([5]; mCPP 1 μg/kg alone, no test compound, negative control 0,130±0,024): 0,300±0,038

SMILES: CC[C@@H](CO)NC(=O)[C@@H]1C=C2c3cccc4c3c(cn4C)C[C@H]2N(C)C1 [Methysergide]
- Plasma protein extravasation as EvansBlue extinction at 600 nm ([5]; dose 0.1 μg/kg i.v.): 0.265 ± 0.034
- Plasma protein extravasation as EvansBlue extinction at 600 nm ([5]; dose 1 μg/kg i.v.): 0.250 ± 0.027
- Plasma protein extravasation as EvansBlue extinction at 600 nm ([5]; dose 10 μg/kg i.v.): 0.228 ± 0.064
- Plasma protein extravasation as EvansBlue extinction at 600 nm ([5]; dose 100 μg/kg i.v.): 0.189 ± 0.026
